From ChEMBL document CHEMBL1201862, “PubChem BioAssay data set” (2004) come the findings set out here.

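The compound was tested at five concentrations on cells cultured in 96-well plates, with a 48-hour exposure period. Here, GI50 denotes the concentration required for 50% inhibition of growth.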 Calls of active or inactive are those of the source. Rule as the data show it: active = GI50 up to about 1.1 µM and inactive = higher. Where only a bound is given, the exact number is not on record here.

Common to all, as to assay: NCI anticancer screen, dose series, 48 h
The test system of experiment [1] is KM-20L2.
Experiment [2] relates to DLD-1.
Experiment [3] deals with DMS-273.
For experiment [4], the system named is LXFL 529.
Experiment [5] relates to RXF 631.
For experiment [6], the system named is DMS-114.
The test system of experiment [7] is XF498.
Experiment [8] relates to SNB-78.
The test system of experiment [9] is HOP-18.

For `O=C1c2ccccc2-c2cccc3ccc(Cc4ccccc4)c1c23`, the GI50 in experiment [1], in experiment [2], in [3], in [4], in [5] and in experiment [6] was > 100 µM (inactive) in each case. Further, the GI50 in experiment [7] and in experiment [8] was > 100 µM (inactive) in each case.

Turning to `CCCN1C(=O)C/C(=C\C(C)=O)Nc2ccccc21`, the GI50 is > 100 µM (inactive) in experiment [2]; > 100 µM (inactive) in [3]; > 100 µM (inactive) in [4]; 71.4 µM (inactive) in [6]; > 100 µM (inactive) in [7]; 80.2 µM (inactive) in experiment [8].

Consider `Cc1ccc(S(=O)(=O)SC(C)(C)C)cc1`, for which the GI50 in experiment [2] was 18.5 µM (inactive); in experiment [3], 19.8 µM (inactive); in experiment [4] it was 32.7 µM (inactive); in experiment [5], > 100 µM (inactive); in experiment [6] it was 16.9 µM (inactive); in experiment [7] it was 15.6 µM (inactive). For the same compound, the GI50 in experiment [8] was 51.2 µM (inactive); in experiment [9], > 100 µM (inactive).

For the compound `O=c1cccccc1NCCCCCCCCNc1cccccc1=O`, the GI50 is > 100 µM (inactive) in experiment [1]; > 100 µM (inactive) in experiment [2]; 55.7 µM (inactive) in [3]; 47.9 µM (inactive) in experiment [4]; 1.74 µM (inactive) in experiment [5]; 1.77 µM (inactive) in experiment [6]. Also, the GI50 in experiment [7] is 23 µM (inactive); in experiment [8], > 100 µM (inactive).

In the case of `CN(C)CCCNc1ccnc2c([N+](=O)[O-])cccc12`, the GI50 in experiment [1] was 4.36 µM (inactive); in experiment [3], 14.7 µM (inactive); in experiment [6] it was 2.48 µM (inactive); in experiment [7] it was 14.8 µM (inactive); in [8], 31.2 µM (inactive).

On to `O=S(=O)(c1ccccc1)n1cnc(CCc2ccccc2)n1`, for which the GI50 in experiment [1], in [2], in [3], in experiment [4], in experiment [6] and in [8] was > 100 µM (inactive) each time. In experiment [9], the GI50 is > 100 µM (inactive).

Regarding `N#C/N=C1\NCCC(=O)N1CCc1c[nH]c2ccccc12`, the GI50 in [2], in [3], in experiment [4], in experiment [6], in experiment [7] and in experiment [8] was > 100 µM (inactive) throughout.

On to `CN(C)CCC(/C=C/c1ccccc1)=N\Nc1ccc(Cl)cc1`, for which the GI50 is 1.56 µM (inactive) in experiment [1]; 2.88 µM (inactive) in experiment [2]; 2.11 µM (inactive) in experiment [3]; 2.84 µM (inactive) in experiment [4]; 2.4 µM (inactive) in [6]; 6.07 µM (inactive) in [8]. Moreover, the GI50 in experiment [9] is 4.69 µM (inactive).

As to `COc1ccccc1/C=C(\C#N)c1ccccc1`, the GI50 is 23.6 µM (inactive) in experiment [1]; 28.1 µM (inactive) in experiment [2]; 16.8 µM (inactive) in experiment [3]; 36.1 µM (inactive) in experiment [4]; 16.5 µM (inactive) in experiment [6]; 31.2 µM (inactive) in [8]. Also, in experiment [9], the GI50 was 38.5 µM (inactive).

Regarding `CC(C)n1c2c([n+](C)c1/C=C/c1ccccc1)C(=O)c1ccccc1C2=O`, the GI50 was 0.0955 µM (active) in experiment [1]; 0.426 µM (active) in experiment [2]; 0.0348 µM (active) in [3]; 0.0861 µM (active) in [4]; < 0.0148 µM (active) in [6]; 0.0389 µM (active) in experiment [8].

Consider `N=C(N)NS(=O)(=O)c1ccc(Nc2c3ccccc3nc3c(C(=O)Nc4ccc(S(N)(=O)=O)cc4)cccc23)cc1`, for which the GI50 in [1] is > 100 µM (inactive); in experiment [2], > 100 µM (inactive); in experiment [3], > 100 µM (inactive); in experiment [4], 26.8 µM (inactive); in [6] it was 45 µM (inactive); in experiment [7] it was 25.3 µM (inactive). Further, the results for the GI50 in [8] and in [9] were 76.4 µM (inactive) and > 100 µM (inactive), respectively.

For the compound `COc1ccc2c(c1)OCCCN(C)OC2c1ccccc1` (stereo not given), the GI50 in [1], in experiment [3], in experiment [4], in experiment [6] and in experiment [8] was > 100 µM (inactive) in each case.

As to `COC1=CC(=O)c2c(cc3c(c2O)-c2c(OC)cc4cc5c(c(O)c4c2OC(=O)CC(C)(O)C3)C(=O)CC(C)(O)C5)C1=O` (stereo not given), the GI50 in experiment [1] was 1.63 µM (inactive); in experiment [2], 2.63 µM (inactive); in [3] it was 1.64 µM (inactive); in [4], 1.16 µM (inactive); in experiment [6], 1.69 µM (inactive); in experiment [7], 1.37 µM (inactive). Also, the GI50 in [8] is 1.85 µM (inactive); in experiment [9] it was 1.3 µM (inactive).

On to `Cc1cc(=O)cc2sc3cc(Cl)ccc3nc1-2`, for which the GI50 in [1] is 17.4 µM (inactive); in [2] it was 6.49 µM (inactive); in [3], 6.17 µM (inactive); in experiment [4], 15.2 µM (inactive); in [7] it was 4.28 µM (inactive); in experiment [8], 17 µM (inactive). The GI50 in experiment [9] is 48.1 µM (inactive).

For `Cc1ccc(C(=O)/C=C/c2cccc([N+](=O)[O-])c2)cc1`, the GI50 in experiment [1] is 36.6 µM (inactive); in experiment [2] it was 44 µM (inactive); in experiment [3], > 83.4 µM (inactive); in experiment [4], 37.8 µM (inactive); in experiment [5] it was > 73.8 µM (inactive); in experiment [6], 46.5 µM (inactive). For the same compound, the GI50 in [8] and in experiment [9] was > 100 µM (inactive) in each case.

With `C#Cc1cccc(N2C(=O)c3c(c(-c4ccccc4)c(-c4ccc(Cc5ccc(-c6c(-c7ccccc7)c7c(c(-c8ccccc8)c6-c6ccccc6)C(=O)N(c6cccc(C#C)c6)C7=O)cc5)cc4)c(-c4ccccc4)c3-c3ccccc3)C2=O)c1`, the GI50 in experiment [1] was 16.2 µM (inactive); in experiment [2], 32.9 µM (inactive); in experiment [3], 52.2 µM (inactive); in experiment [4] it was 14.9 µM (inactive); in [6] it was 20.5 µM (inactive); in [7], 22.8 µM (inactive). The GI50 in experiment [8] is 47.4 µM (inactive).

In the case of `CC1=Nc2c(O)nc(S)nc2NC(c2c(Cl)cccc2Cl)C1` (stereo not given), the GI50 in [1] was 4.23 µM (inactive); in [2], 2.42 µM (inactive); in [3], 1.95 µM (inactive); in experiment [4] it was 2.96 µM (inactive); in experiment [5], 5.75 µM (inactive); in experiment [6] it was 3.05 µM (inactive). The figures for the GI50 in experiment [7], in experiment [8] and in experiment [9] were 3.1 µM (inactive), 4.43 µM (inactive) and 15.2 µM (inactive), respectively.

With `CCOC(=O)C(=Cc1cccnc1C)C(=O)OCC`, the GI50 is 3.6 µM (inactive) in experiment [1]; 9.27 µM (inactive) in [2]; 3.82 µM (inactive) in experiment [3]; 7.57 µM (inactive) in [4]; 11.9 µM (inactive) in experiment [5]; 13.7 µM (inactive) in experiment [6]. Moreover, the GI50 in [7] is 12.6 µM (inactive); in experiment [9], 9.68 µM (inactive).

In the case of `O=C(c1ccccc1)c1oc2ccc(Br)cc2c1-c1cnn(-c2ccccc2)c1`, the GI50 in experiment [1], in [2], in experiment [3], in [4], in [6] and in [7] was > 100 µM (inactive) in each case. For the same compound, in [8], the GI50 was > 100 µM (inactive).

With `COC(=O)C(=O)C(C#N)c1c(Cl)cccc1Cl` (stereo not given), the GI50 in experiment [1], in [2], in experiment [3], in experiment [4], in [5] and in [6] was > 100 µM (inactive) in each case. Also, the GI50 in experiment [7] and in [8] was > 100 µM (inactive) each time.

Take `C[n+]1c2ccccc2c(/C=N\NS(=O)(=O)c2ccc(O)c(C(=O)O)c2)c2ccccc21`: the GI50 in experiment [1] is 53.6 µM (inactive); in experiment [2] it was 58.7 µM (inactive); in experiment [3], 35.6 µM (inactive); in experiment [5], 31.6 µM (inactive); in [6] it was 34 µM (inactive); in experiment [7], 14.9 µM (inactive). Also, the GI50 in [8] is > 100 µM (inactive).

`O=C(CC1(O)C(=O)Nc2c(Cl)cc(Cl)cc21)c1ccc([N+](=O)[O-])cc1` (stereo not given): the GI50 in [1] was > 78 µM (inactive); in [2], > 43.4 µM (inactive); in [3], > 62.4 µM (inactive); in experiment [4] it was 25.6 µM (inactive); in experiment [6], 23.8 µM (inactive); in experiment [7] it was 56.5 µM (inactive). In addition, the GI50 is > 47.8 µM (inactive) in experiment [8] and > 100 µM (inactive) in [9].

As for `CCC(/C=C/c1ccccc1)=N\N=C(\C=C\c1ccccc1)CC`, the GI50 in [1], in [2], in experiment [3], in experiment [4], in experiment [7] and in experiment [8] was > 100 µM (inactive) in each case.

Consider `O=C1C2Cc3ccccc3CN2C(=O)N1CCN1CCOCC1` (stereo not given), for which the GI50 in experiment [1], in experiment [2], in experiment [3], in [4], in experiment [5] and in experiment [6] was > 100 µM (inactive) in each case.
